Data on one compound can be found in PMC12123458, “Unraveling Small Molecule-Mediated Sirtuin 3 Activation at a Distinct Binding Site for Cardioprotective Therapies” (ACS Central Science, 2025).

One assay addresses T1, SIRT3 L298G mutant (Homo sapiens, UniProt Q9NTG7, L298G).
T1 construct: made in house
T1 sequence (Q9NTG7 1-399 L298G): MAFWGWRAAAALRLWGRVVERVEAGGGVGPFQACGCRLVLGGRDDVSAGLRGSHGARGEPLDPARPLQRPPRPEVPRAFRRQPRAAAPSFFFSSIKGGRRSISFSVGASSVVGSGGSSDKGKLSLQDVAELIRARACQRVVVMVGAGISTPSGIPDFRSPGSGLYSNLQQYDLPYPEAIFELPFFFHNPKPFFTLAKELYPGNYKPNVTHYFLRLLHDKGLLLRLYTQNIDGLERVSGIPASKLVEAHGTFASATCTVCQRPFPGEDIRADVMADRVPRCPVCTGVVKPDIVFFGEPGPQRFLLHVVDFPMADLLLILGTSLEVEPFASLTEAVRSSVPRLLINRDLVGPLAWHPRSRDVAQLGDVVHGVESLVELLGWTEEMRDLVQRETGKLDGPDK
The experiment in a line: BLI binding of SKLB-11A to mutant SIRT3 (L298G). Particulars: read-out: dissociation constant, L298G mutant SIRT3. The procedure: SIRT3 protein at a concentration of 10 mg/mL was incubated with SKLB-11A (200 mM) in a mole ratio of 1:5 on ice for 1–3 h. The mixture was then centrifuged at 4 °C for 10 min, and the supernatant was used for crystallization. The precipitant solution consisted of 0.2 M Li2SO4, 1.0 M (NH4)2SO4, and 0.1 M Tris, at pH 7.5. Crystals emerged after approximately 3 days at 16 °C on a sitting-drop plate. The crystals were subsequently transferred to a cryoprotectant solution containing 20% glycerol and were flash-cooled in a nitrogen gas stream at 100 K for synchrotron radiation X-ray diffraction data collection. Site-directed mutagenesis. L298G Primer forward: 5′-[…]-GAACCGggc[…][…]-3′; reverse: 5′-gccCGGTT[…]-AAAACGA-3′; Site-directed mutagenesis was conducted using 2 x Phanta Flash Master Mix (Vazyme, P510). The mutated plasmid was sequenced by Sangon Biotech (Shanghai, China).
Binding kinetics of SIRT3 with various compounds were quantified using SSA biosensors on an Octet Red96 system (ForteBio). The assays occurred in 96-well plates, recording wavelength shifts in real-time. Ambient temperature was maintained at 25 °C, with plate agitation at 1000 rpm, and a reaction volume of 200 μL per well. SIRT3 protein and test compounds were prepared in phosphate-buffered saline (PBS, pH 7.4). […]
A general note: In BLI a coated tip is dipped into the sample, and binding shifts an interference pattern.

In the next assay the target is T2, SIRT3 (Homo sapiens, UniProt Q9NTG7).
T2 construct: purchased Enzo Life Sciences BML-AK557-0001
T2 sequence (Q9NTG7 1-399): T1 sequence (Q9NTG7 1-399 L298G) with G298L
The experiment in a line: Coupled enzymatic assay, acetylated MnSOD-K122 substrate. The format is biochemical. As to conditions: 100 μM. From the text:
Additionally, we used surface plasmon resonance (SPR) to measure the binding of SKLB-11A to immobilized SIRT3. […] We next evaluated the selectivity of SKLB-11A for different SIRT family members. […] We next examined the functional specificity of SKLB-11A using coupled enzymatic assays with isoform-specific, physiologically relevant substrates: acetylated p53-K381 for SIRT1, acetylated α-tubulin-K25 for SIRT2, acetylated MnSOD-K122 for SIRT3, and succinylated CPS1-K537 for SIRT5 (Supplementary Table S3). […] Using Schrödinger molecular docking simulations, we assessed the binding interactions of SKLB-11A with SIRT isoforms.

Another assay has as its target T3, SIRT1 (Rattus norvegicus, UniProt A0A0G2JZ79).
T3 construct: endogenous in cells; host or cells: H9c2
T3 sequence (A0A0G2JZ79 1-741): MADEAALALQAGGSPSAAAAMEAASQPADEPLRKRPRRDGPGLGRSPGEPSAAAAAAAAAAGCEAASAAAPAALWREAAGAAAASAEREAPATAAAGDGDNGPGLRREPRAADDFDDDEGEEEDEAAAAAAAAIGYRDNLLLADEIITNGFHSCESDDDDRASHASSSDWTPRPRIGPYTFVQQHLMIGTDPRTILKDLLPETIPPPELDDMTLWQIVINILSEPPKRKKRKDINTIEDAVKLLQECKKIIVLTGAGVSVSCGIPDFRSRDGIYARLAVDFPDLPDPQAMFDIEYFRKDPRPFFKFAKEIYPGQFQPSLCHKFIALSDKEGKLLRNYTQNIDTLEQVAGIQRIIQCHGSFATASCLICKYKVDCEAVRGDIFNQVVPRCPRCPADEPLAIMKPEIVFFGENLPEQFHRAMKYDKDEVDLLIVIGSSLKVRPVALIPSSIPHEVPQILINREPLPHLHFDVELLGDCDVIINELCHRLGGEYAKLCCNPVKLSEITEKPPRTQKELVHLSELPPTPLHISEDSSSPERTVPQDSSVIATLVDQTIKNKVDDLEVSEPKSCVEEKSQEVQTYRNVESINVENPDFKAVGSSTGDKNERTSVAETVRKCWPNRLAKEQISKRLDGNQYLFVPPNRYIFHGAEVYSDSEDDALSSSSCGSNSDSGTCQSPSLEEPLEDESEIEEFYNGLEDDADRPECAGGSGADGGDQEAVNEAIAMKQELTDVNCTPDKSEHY
The experiment in a line: CETSA of SIRT1 in H9c2 cells. The format is cell-based.

Structures are written as SMILES. Where a chain is given by its changes, count along the chain named.

Take `COC(=O)c1c(N)n(Cc2ccc(F)cc2)c2nc3ccccc3nc12` [SKLB-11A, Methyl 2-amino-1-(4-fluorobenzyl)-1H-pyrrolo[2,3-b]quinoxaline-3-carboxylate]: the Kd at SIRT3 L298G mutant came to 167 µM. In addition, on SIRT3, the “effect on SIRT3 deacetylation activity” value is listed as “pronounced activation”. Moreover, the “thermal stability of SIRT1 (CETSA)” value at SIRT1 was “little effect on the thermal stability”.
